Converted amounts (≈) assume the structure as drawn. Read-outs that look alike come from different tables or passages of the source.
How the values were obtained:
HSV-1 [1] = details: combination of D609 and acyclovir; cited from earlier work
[2] = tested on: herpes simplex virus (HSV-1); details: cited from earlier work
Varicella-Zoster virus = details: S-acetyl glutathione 0.35 mg/mL with three acyclovir concentrations, strongest at 0.9 mcg/mL acyclovir; cited from earlier work
[3] = octanol-water partition coefficient log P; assay type: physicochemical; details: n-octanol and water
Description: A criterion that can serve as a measure of the absorption of the solute through the wall of the small intestine is permeability, i.e., the fraction of the substance permeating through the intestinal wall. The physicochemical property of a molecule that makes the greatest contribution to permeability is liphophilicity. A measure of lipophilicity to be used in indirect assessment of intestinal permeability is the octanol-water partition coefficient, log P, which is the logarithm of the ratio of concentrations of an unionized substance in the system of two immiscible liquids (n-octanol and water). […]

[4] = cited from earlier work
[5] = in vivo; cited from earlier work
HSV-1 [6] = details: Vero cells, cited from earlier work
HSV-2 = details: Vero cells, cited from earlier work
[7] = tested on: herpes simplex viruses type 1 (HSV-1); details: cited from earlier work
[8] = in the presence of low, inefficient concentrations of xanthogenate; cited from earlier work
[9] = biopharmaceutical and biorelevant solubility (pH media, FaSSIF, FeSSIF)
Description: (§1) For this purpose, we studied the solubilities of these compounds at various pH values that correspond to the gastrointestinal fluids (for the intestinal fluid: pH is 1.2; for the duodenal fluid: pH 4.4; and for the small intestine fluid: pH 6.8).
(§2) One biopharmaceutical solubility value which allows describing a therapeutic drug (TD) as a compound having “high” or “low” solubility, is the dose/solubility ratio (D/S). The dose/solubility ratio is determined as follows: maximal dose (D) (mg)/water solubility (S) (mg/mL).
(§3) Importantly, biopharmaceutical solubility is not a constant value for a given therapeutic drug (TD); rather, it depends on the maximal registered dosage of an immediate-release TD intended for systemic effects.
(§4) One more biopharmaceutical value is the solubility in biorelevant media. These are dissolution media such that approach the human body fluids (intestinal fluid and gastric fluid) as closely as possible in terms of chemical composition and in terms of physicochemical properties (pH, osmomolality, buffer capacity, and surface tension). The simulation of physiological conditions is provided by introducing surfactants (lecithin and sodium taurocholate) into these media. There are two major types of biorelevant media, namely: an artificial intestinal fluid in an empty stomach (fasted state simulated intestinal fluid (FaSSIF)) and after eating (fed state simulated intestinal fluid (FeSSIF)).

[10] = reference for high intestinal permeability; cited from earlier work
HSV-1 “L2/R” virus = assay type: cell-based, herpes simplex virus type I; details: concentrations of 500 mcg/mL and 250 mcg/mL, VERO
Description: The criteria used to evaluate the antiviral activity were: the ability to prevent the development of a virus-induced cytopathic effect and the ability to inhibit reproduction of the virus in the cell culture. Test samples were inserted into the nutrient medium 1 hour after the culture was infected with a certain dose of the virus (the therapeutic scheme). The antiviral activity of the samples and virus-induced cytopathic effects in the cell culture were monitored every day using light microscopy as the degree of morphological alteration of a cell monolayer. The endpoint was on the 4th day of contact of the cells with the infectious material, after a well-defined (100%) cytopathic effect appeared in control samples (positive control). The presence of antiviral activity in samples of organogermanium compounds according to the invention was ascertained as the difference between the viral titers measured in the experiment and in the control.

Description for physchem: as §1, §2, §3, §4

For `S=C(S)OC1CC2CC1C1CCCC21` (centres unmarked) [D609, tricyclodecan-9-yl-xanthogenate], the “survival of animals infected with HSV-1” value (HSV-1 [1]) is given as “survival of all animals”.
For `CC(=O)SC[C@H](NC(=O)CC[C@H](N)C(=O)O)C(=O)NCC(=O)O` [S-acetyl glutathione], the “effect of combination with acyclovir against HSV-1” value ([2]; S-acetyl glutathione combined with acyclovir) is given as “strong synergistic effect”, the “concentration from which efficient against HSV-1” value [2] is given as no less than 0.35 mg/mL and the “effect of compositions with acyclovir against Varicella-Zoster virus” value (Varicella-Zoster virus) is given as “noticeable synergistic effect”.
In the case of `Nc1nc2c(ncn2COCCO)c(=O)[nH]1` [acyclovir, 9-[(2-hydroxyethoxy)methyl] guanine], the logP [3] is given as -1.57, the “solubility in hydrophobic systems” value [4] is given as “almost insoluble” and the bioavailability [5] is given as 15-20%. The “effect of combination against HSV-1” value (HSV-1 [6]; acyclovir 0.04-0.4 mcg/mL with carbocyclic oxetanocin G 0.01-0.2 mcg/mL) was “synergistic effect”, the “effect of combination against HSV-1” value (HSV-1 [6]; acyclovir 0.04-0.4 mcg/mL with oxetanocin G 0.4-5.4 mcg/mL) was “synergistic effect” and the “effect of combination against HSV-2” value (HSV-2; acyclovir 0.1-3.4 mcg/mL with carbocyclic oxetanocin G 0.04-0.54 mcg/mL) was “synergistic effect”. The “effect of combination against HSV-2” value (HSV-2; acyclovir 0.1-3.4 mcg/mL with oxetanocin G 0.4-4 mcg/mL) was “synergistic effect”, the “concentration for 50% inhibition of the virus-induced cytopathic effect” value ([7]; acyclovir used alone) was 0.4 µg/mL and the “acyclovir concentration for 50% inhibition of the virus-induced cytopathic effect” value ([7]; combined with bis-netropsin 0.15 mcg/mL) was 0.15 µg/mL. For the same molecule, the “acyclovir concentration for 50% inhibition of the virus-induced cytopathic effect” value ([7]; combined with netropsin 2.5 mcg/mL) was 0.075 µg/mL, the “increase of acyclovir activity in a cell culture” value [8] was “fivefold” and the solubility (physchem; FaSSIF (fasted state simulated intestinal fluid), fassif) was 1440 µg/mL (≈ 6.39 mM). It also gave a solubility (physchem; FeSSIF (fed state simulated intestinal fluid), fessif) of 1380 µg/mL (≈ 6.13 mM), a solubility (physchem; aqueous dissolution medium at pH 1.2, pH 1.2, simulated gastric fluid) of 3500 µg/mL (≈ 15.5 mM) and a solubility (physchem; aqueous dissolution medium at pH 4.5, pH 4.4, aqueous buffer) of 2600 µg/mL (≈ 11.5 mM). For the same molecule, the “Solubility (“high”/“low”)” value ([9]; FaSSIF) was ““low””, the “Solubility (“high”/“low”)” value ([9]; FeSSIF) was ““low”” and the “Solubility (“high”/“low”)” value ([9]; pH 1.2) was ““high” (When D/S≦250 mL, the TD has “high” solubility in the relevant aqueous solution)”. For the same molecule, the “Solubility (“high”/“low”)” value ([9]; pH 4.4-4.5 (4.4 for the tested compounds, 4.5 for acyclovir)) was “low and “low””, the “Solubility (“high”/“low”)” value ([9]; pH 6.8) was “low and “low”” and the solubility ([9]; pH 6.8) was 2.4 mg/mL (≈ 10.7 mM).
In the case of `Nc1nc2c(ncn2COC(CO)CO)c(=O)[nH]1` [gancyclovir, 9-[(1,3-dihydroxy-2-propoxy)methyl]guanine], the bioavailability [5] is given as 5% and the “reduction in gancyclovir concentration” value ([7]; combination with netropsin and bis-netropsin) is given as “fivefold”.
In the case of `COCCc1ccc(OCC(O)CNC(C)C)cc1` (centres unmarked) [metoprolol], the “log P of reference substance” value [10] is listed as 1.72.
For `Nc1nc2c(ncn2CCC(CO)CO)c(=O)[nH]1` [pencyclovir, 9-[4-hydroxy-3-(hydroxymethyl)butyl]guanine], the water solubility ([4]; at 20° C.) is listed as 1.74 mg/mL (≈ 6.87 mM) and the bioavailability [5] is listed as 1.5%.
With `CC(C)[C@H](N)C(=O)OCCOCn1cnc2c(=O)[nH]c(N)nc21` [valacyclovir, 2-(guanin-9-ylmethoxy)ethyl L-valine ether] the “reduction of the infectious activity of the HSV-1 “L2/R” virus” value (HSV-1 “L2/R” virus) was 1.5 log.
For `Nc1ncnc2c1ncn2[C@@H]1O[C@H](CO)[C@@H](O)[C@@H]1O` [vidarabine, 9-β-D-arabinofuranosyl adenine], the “water solubility (in words)” value [4] is given as “poorly soluble”.
